Experimental data as given in US6737383B1, “Herbicidal oxadiazolidines” (priority 1999, dated 2004).

Columns and labels:
bedstraw = experiment: Test B pre/postemergence bedstraw; type: in vivo, Galium aparine
Summary of the method: (§1)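 Herbicidal effect was estimated by eye on a ten-point control scale after plants spent twelve to sixteen days in a greenhouse following soil or foliar treatment. Foliar sprays targeted plants at one to four leaves; all doses were formulated in a non-phytotoxic solvent with surfactant.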

blackgrass = experiment: Test B pre/postemergence blackgrass; type: in vivo, Alopecurus myosuroides
Summary of the method: as §1

surinam grass = experiment: Test B pre/postemergence surinam grass; type: in vivo, Brachiaria decumbens
Summary of the method: as §1

cocklebur = experiment: Test B pre/postemergence cocklebur; type: in vivo, Xanthium strumarium; conditions: for Cocklebur plant response rating: scale of 0 to 10 where 0 is no effect and 10 is complete control
Summary of the method: as §1

corn = experiment: Test B pre/postemergence corn; type: in vivo, Zea mays; conditions: for Corn plant response rating: scale of 0 to 10 where 0 is no effect and 10 is complete control
Summary of the method: as §1

crabgrass = experiment: Test B pre/postemergence crabgrass; type: in vivo, Digitaria sanguinalis; conditions: for Crabgrass plant response rating: scale of 0 to 10 where 0 is no effect and 10 is complete control
Summary of the method: as §1

giant foxtail = experiment: Test B pre/postemergence giant foxtail; type: in vivo, Setaria faberii; conditions: for Giant foxtail plant response rating: scale of 0 to 10 where 0 is no effect and 10 is complete control
Summary of the method: as §1

morningglory = experiment: Test B pre/postemergence morningglory; type: in vivo, Ipomoea hederacea; conditions: for Morningglory plant response rating: scale of 0 to 10 where 0 is no effect and 10 is complete control
Summary of the method: as §1

pigweed = experiment: Test B pre/postemergence pigweed; type: in vivo, Amaranthus retroflexus; conditions: for Redroot pigweed plant response rating: scale of 0 to 10 where 0 is no effect and 10 is complete control
Summary of the method: as §1

rape = experiment: Test B pre/postemergence rape; type: in vivo, Brassica napus; conditions: for Rape plant response rating: scale of 0 to 10 where 0 is no effect and 10 is complete control
Summary of the method: as §1

soybean = experiment: Test B pre/postemergence soybean; type: in vivo, Glycine max; conditions: for Soybean plant response rating: scale of 0 to 10 where 0 is no effect and 10 is complete control
Summary of the method: as §1

sugar beet = experiment: Test B pre/postemergence sugar beet; type: in vivo, Beta vulgaris; conditions: for Sugarbeets plant response rating: scale of 0 to 10 where 0 is no effect and 10 is complete control
Summary of the method: as §1

velvetleaf = experiment: Test B pre/postemergence velvetleaf; type: in vivo, Abutilon theophrasti; conditions: for Velvetleaf plant response rating: scale of 0 to 10 where 0 is no effect and 10 is complete control
Summary of the method: as §1

wheat = experiment: Test B pre/postemergence wheat; type: in vivo, Triticum aestivum; conditions: for Wheat plant response rating: scale of 0 to 10 where 0 is no effect and 10 is complete control
Summary of the method: as §1

wild oat = experiment: Test B pre/postemergence wild oat; type: in vivo, Avena fatua; conditions: for Wild oats plant response rating: scale of 0 to 10 where 0 is no effect and 10 is complete control
Summary of the method: as §1

purple nutsedge = experiment: Test B pre/postemergence purple nutsedge; type: in vivo, Cyperus rotundus; conditions: for Nutsedge plant response rating: scale of 0 to 10 where 0 is no effect and 10 is complete control
Summary of the method: as §1

rice = experiment: Test B flood test rice; type: in vivo, Oryza sativa
Summary of the method: (§2)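 Plants were grown to the 2-leaf stage before treatment with test chemical, then held in a greenhouse for twelve to sixteen days. Injury was visually rated against untreated controls on a 0–10 scale, where 0 is no effect and 10 is complete control.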

smallflower flatsedge = experiment: Test B flood test smallflower flatsedge; type: in vivo, Cyperus difformis
Summary of the method: as §2

duck salad = experiment: Test B flood test duck salad; type: in vivo, Heteranthera limosa
Summary of the method: as §2

bamyardgrass = experiment: Test B flood test barnyardgrass; type: in vivo, Echinochloa crus-galli
Summary of the method: as §2

[1] = Postemergence, Rate 125 g/ha, scale 0 to 10, 0 is no effect, 10 is complete control
[2] = Preemergence, Rate 62 g/ha, scale 0 to 10 (0 no effect, 10 complete control)
[3] = Rate 62 g/ha, Postemergence, scale of 0 to 10 where 0 is no effect and 10 is complete control
[4] = Rate 250 g/ha, Postemergence, scale of 0 to 10 where 0 is no effect and 10 is complete control
[5] = Rate 500 g/ha, Postemergence, scale 0 to 10, 0 no effect, 10 complete control
[6] = Preemergence, Rate 250 g/ha, scale of 0 to 10 where 0 is no effect and 10 is complete control
[7] = Preemergence, Rate 500 g/ha, scale of 0 to 10 where 0 is no effect and 10 is complete control
[8] = Postemergence (flood test), Rate 125 g/ha, scale 0 to 10, 0 is no effect, 10 is complete control
[9] = Rate 62 g/ha, Postemergence (flood test species), scale of 0 to 10 where 0 is no effect and 10 is complete control
[10] = Rate 500 g/ha, listed under Postemergence (flood test species), scale 0 to 10, 0 no effect, 10 complete control

Structure (SMILES): Cc1c(-n2c(=O)on(C(=O)N(c3ccccc3)C(C)C)c2=O)ccc2ccccc12 [Compound 344]
- Plant response rating, Bedstraw (bedstraw; [1]): 0
- Plant response rating, Bedstraw (bedstraw; [2]): 0
- Bedstraw plant response rating (0 to 10 scale) (bedstraw; Preemergence, Rate 125 g/ha): 0
- Bedstraw plant response rating (bedstraw; [3]): 0
- Plant response rating, Bedstraw (bedstraw; [4]): 0
- Plant response rating, Bedstraw (bedstraw; [5]): 0
- Plant response rating, Blackgrass (blackgrass; [1]): 0
- Plant response rating, Blackgrass (blackgrass; [2]): 0
- Blackgrass plant response rating (0 to 10 scale) (blackgrass; Preemergence, Rate 125 g/ha): 0
- Blackgrass plant response rating (blackgrass; [6]): 0
- Blackgrass plant response rating (blackgrass; [7]): 0
- Blackgrass plant response rating (blackgrass; [3]): 0
- Plant response rating, Blackgrass (blackgrass; [4]): 0
- Plant response rating, Blackgrass (blackgrass; [5]): 0
- Plant response rating, B. signalgrass (surinam grass; [1]): 0
- Plant response rating, B. signalgrass (surinam grass; [2]): 0
- B. signalgrass plant response rating (0 to 10 scale, 0 is no effect, 10 is complete control) (surinam grass; Preemergence, Rate 125 g/ha): 0
- B. signalgrass plant response rating (surinam grass; [6]): 0
- B. signalgrass plant response rating (surinam grass; [7]): 0
- B. signalgrass plant response rating (surinam grass; [3]): 0
- Plant response rating, B. signalgrass (surinam grass; [4]): 0
- Plant response rating, B. signalgrass (surinam grass; [5]): 0
- Plant response rating, Cocklebur (cocklebur; [1]): 0
- Plant response rating, Cocklebur (cocklebur; [2]): 0
- Cocklebur plant response rating (0 to 10 scale) (cocklebur; Preemergence, Rate 125 g/ha): 0
- Cocklebur plant response rating (cocklebur; Preemergence, Rate 250 g/ha): 0
- Cocklebur plant response rating (cocklebur; Preemergence, Rate 500 g/ha): 0
- Cocklebur plant response rating (cocklebur; Rate 62 g/ha, Postemergence): 0
- Plant response rating, Cocklebur (cocklebur; [5]): 0
- Plant response rating, Corn (corn; [1]): 0
- Plant response rating, Corn (corn; [2]): 0
- Corn plant response rating (0 to 10 scale) (corn; Preemergence, Rate 125 g/ha): 0
- Corn plant response rating (corn; Preemergence, Rate 250 g/ha): 0
- Corn plant response rating (corn; Preemergence, Rate 500 g/ha): 0
- Corn plant response rating (corn; Rate 62 g/ha, Postemergence): 0
- Plant response rating, Corn (corn; [5]): 0
- Plant response rating, Crabgrass (crabgrass; [1]): 0
- Plant response rating, Crabgrass (crabgrass; [2]): 0
- Crabgrass plant response rating (0 to 10 scale) (crabgrass; Preemergence, Rate 125 g/ha): 0
- Crabgrass plant response rating (crabgrass; Preemergence, Rate 250 g/ha): 0
- Crabgrass plant response rating (crabgrass; Preemergence, Rate 500 g/ha): 1
- Crabgrass plant response rating (crabgrass; Rate 62 g/ha, Postemergence): 0
- Plant response rating, Crabgrass (crabgrass; [5]): 0
- Plant response rating, Giant foxtail (giant foxtail; [1]): 0
- Plant response rating, Giant foxtail (giant foxtail; [2]): 0
- Giant foxtail plant response rating (0 to 10 scale) (giant foxtail; Preemergence, Rate 125 g/ha): 2
- Giant foxtail plant response rating (giant foxtail; Preemergence, Rate 250 g/ha): 3
- Giant foxtail plant response rating (giant foxtail; Preemergence, Rate 500 g/ha): 8
- Giant foxtail plant response rating (giant foxtail; Rate 62 g/ha, Postemergence): 0
- Plant response rating, Giant foxtail (giant foxtail; [5]): 0
- Plant response rating, Morningglory (morningglory; [1]): 0
- Plant response rating, Morningglory (morningglory; [2]): 0
- Morningglory plant response rating (0 to 10 scale) (morningglory; Preemergence, Rate 125 g/ha): 0
- Morningglory plant response rating (morningglory; Preemergence, Rate 250 g/ha): 0
- Morningglory plant response rating (morningglory; Preemergence, Rate 500 g/ha): 0
- Morningglory plant response rating (morningglory; Rate 62 g/ha, Postemergence): 0
- Plant response rating, Morningglory (morningglory; [5]): 0
- Plant response rating, Redroot pigweed (pigweed; [1]): 0
- Plant response rating, Redroot pigweed (pigweed; [2]): 0
- Redroot pigweed plant response rating (0 to 10 scale) (pigweed; Preemergence, Rate 125 g/ha): 0
- Redroot pigweed plant response rating (pigweed; Preemergence, Rate 250 g/ha): 0
- Redroot pigweed plant response rating (pigweed; Preemergence, Rate 500 g/ha): 0
- Redroot pigweed plant response rating (pigweed; Rate 62 g/ha, Postemergence): 0
- Plant response rating, Redroot pigweed (pigweed; [5]): 2
- Plant response rating, Rape (rape; [1]): 0
- Plant response rating, Rape (rape; [2]): 0
- Rape plant response rating (0 to 10 scale) (rape; Preemergence, Rate 125 g/ha): 0
- Rape plant response rating (rape; Preemergence, Rate 250 g/ha): 0
- Rape plant response rating (rape; Rate 62 g/ha, Postemergence): 0
- Plant response rating, Rape (rape; [5]): 0
- Plant response rating, Soybean (soybean; [1]): 2
- Plant response rating, Soybean (soybean; [2]): 0
- Soybean plant response rating (0 to 10 scale) (soybean; Preemergence, Rate 125 g/ha): 0
- Soybean plant response rating (soybean; Preemergence, Rate 250 g/ha): 0
- Soybean plant response rating (soybean; Preemergence, Rate 500 g/ha): 0
- Soybean plant response rating (soybean; Rate 62 g/ha, Postemergence): 2
- Plant response rating, Soybean (soybean; [5]): 2
- Plant response rating, Sugarbeets (sugar beet; [1]): 0
- Plant response rating, Sugarbeets (sugar beet; [2]): 0
- Sugarbeets plant response rating (0 to 10 scale) (sugar beet; Preemergence, Rate 125 g/ha): 0
- Sugarbeets plant response rating (sugar beet; Preemergence, Rate 250 g/ha): 0
- Sugarbeets plant response rating (sugar beet; Preemergence, Rate 500 g/ha): 0
- Sugarbeets plant response rating (sugar beet; Rate 62 g/ha, Postemergence): 0
- Plant response rating, Sugarbeets (sugar beet; [5]): 0
- Plant response rating, Velvetleaf (velvetleaf; [1]): 0
- Plant response rating, Velvetleaf (velvetleaf; [2]): 0
- Velvetleaf plant response rating (0 to 10 scale) (velvetleaf; Preemergence, Rate 125 g/ha): 0
- Velvetleaf plant response rating (velvetleaf; Preemergence, Rate 250 g/ha): 0
- Velvetleaf plant response rating (velvetleaf; Preemergence, Rate 500 g/ha): 0
- Velvetleaf plant response rating (velvetleaf; Rate 62 g/ha, Postemergence): 0
- Plant response rating, Velvetleaf (velvetleaf; [5]): 0
- Plant response rating, Wheat (wheat; [1]): 0
- Plant response rating, Wheat (wheat; [2]): 0
- Wheat plant response rating (0 to 10 scale) (wheat; Preemergence, Rate 125 g/ha): 0
- Wheat plant response rating (wheat; Preemergence, Rate 250 g/ha): 0
- Wheat plant response rating (wheat; Preemergence, Rate 500 g/ha): 0
- Wheat plant response rating (wheat; Rate 62 g/ha, Postemergence): 0
- Plant response rating, Wheat (wheat; [5]): 0
- Plant response rating, Wild oats (wild oat; [1]): 0
- Plant response rating, Wild oats (wild oat; [2]): 0
- Wild oats plant response rating (0 to 10 scale) (wild oat; Preemergence, Rate 125 g/ha): 0
- Wild oats plant response rating (wild oat; Preemergence, Rate 250 g/ha): 0
- Wild oats plant response rating (wild oat; Preemergence, Rate 500 g/ha): 0
- Wild oats plant response rating (wild oat; Rate 62 g/ha, Postemergence): 0
- Plant response rating, Wild oats (wild oat; [5]): 0
- Plant response rating, Nutsedge (purple nutsedge; [1]): 0
- Plant response rating, Nutsedge (purple nutsedge; [2]): 0
- Nutsedge plant response rating (0 to 10 scale) (purple nutsedge; Preemergence, Rate 125 g/ha): 0
- Nutsedge plant response rating (purple nutsedge; Preemergence, Rate 250 g/ha): 0
- Nutsedge plant response rating (purple nutsedge; Preemergence, Rate 500 g/ha): 0
- Nutsedge plant response rating (purple nutsedge; Rate 62 g/ha, Postemergence): 0
- Plant response rating, Nutsedge (purple nutsedge; [5]): 0
- Plant response rating, Rice (rice; [8]): 0
- Rice plant response rating (rice; [9]): 0
- Plant response rating, Rice (rice; [10]): 0
- Plant response rating, S. Flatsedge (smallflower flatsedge; [8]): 0
- S. Flatsedge plant response rating (smallflower flatsedge; [9]): 0
- Plant response rating, S. Flatsedge (smallflower flatsedge; [10]): 0
- Plant response rating, Ducksalad (duck salad; [8]): 0
- Ducksalad plant response rating (duck salad; [9]): 0
- Plant response rating, Ducksalad (duck salad; [10]): 0
- Plant response rating, Barnyardgrass (bamyardgrass; [8]): 0
- Barnyardgrass plant response rating (bamyardgrass; [9]): 0
- Plant response rating, Barnyardgrass (bamyardgrass; Rate 250 g/ha, Postemergence (flood test species), scale of 0 to 10 where 0 is no effect and 10 is complete control): 0
- Plant response rating, Barnyardgrass (bamyardgrass; [10]): 0
